Source: PMC12040169 (PLOS Biology, 2025)

Assay: in vitro
Conditions: human, hela cells, % viability

Going from O=C(CN1C(=O)c2ccccc2C1=O)Nc1sc2c(c1C(=O)NCC1CCCO1)CCC2 (centres unmarked) [CBK265583] to NC(=O)c1c(NC(=O)c2ccc(-c3ccccc3)cc2)sc2c1CCC2 [CBK265747], the viability at 28.5 h, 10 µM falls from 109% to 91.3%.

Compared with COc1ccccc1N(CC(O)CN1C(C)CCCC1C)S(=O)(=O)c1ccccc1 (centres unmarked) [CBK265585], O=S(=O)(NC1CCCC1)c1cccc(-c2nnc(-c3ccccc3)o2)c1 [CBK265716] is higher in viability at 28.5 h, 10 µM: 94.4% for the first, 94.6% for the second.

Compared with CCOC(=O)COc1cccc(/C=C2/SC(=S)N(c3cccc(C(=O)O)c3)C2=O)c1 [CBK265589], CCN1C(=O)S/C(=C/c2ccc(OCc3cccc(C(=O)O)c3)cc2)C1=O [CBK265605] is higher in viability at 28.5 h, 10 µM: 98.3% for the first, 106% for the second.

Compared with O=C(Nc1ccc(S(=O)(=O)NCCc2ccccc2)cc1)c1ccc2c(c1)OCO2 [CBK265591], Cc1cc(NS(=O)(=O)c2ccc(NC(=O)c3ccc(C(C)(C)C)c(Br)c3)cc2)no1 [CBK265629] is higher in viability at 28.5 h, 10 µM: 108% for the first, 119% for the second.

First: O=C(O)CCCC(=O)Nc1cc([N+](=O)[O-])ccc1O [CBK265592]
Second: CCc1ccccc1OCC(=O)Nc1ccc([N+](=O)[O-])cc1OC [CBK265665]
The viability at 28.5 h, 10 µM of the first is higher: 102% for the first, 97.1% for the second.

Going from O=C(/C=C/c1ccccc1[N+](=O)[O-])NCCN1CCOCC1 [CBK265596] to Ic1ccc2ncnc(NCCN3CCOCC3)c2c1 [CBK265655], the viability at 28.5 h, 10 µM rises from 97.8% to 108%.

Compared with Cc1cccc(/N=C2\NC(=O)C(Cc3ccc(C)c(Cl)c3)S2)n1 (centres unmarked) [CBK265597], Cc1ccc(NC(=O)CSc2nc3ccccc3c(=O)n2Cc2ccco2)cc1Cl [CBK265606] is lower in viability at 28.5 h, 10 µM: 106% for the first, 102% for the second.

First: COc1ccccc1C1(CCNCc2ccc3c(c2)OCO3)CCOC(C)(C)C1 (centres unmarked) [CBK265599G]
Second: O=C(c1ccc(COc2ccccc2Cl)o1)N1CCN(Cc2ccc3c(c2)OCO3)CC1 [CBK265750C]
The viability at 28.5 h, 10 µM of the first is higher: 92.3% for the first, 87.3% for the second.

Going from O=C(CC(CC(=O)c1ccc(Cl)cc1)c1ccccc1C(=O)O)c1ccc(Cl)cc1 [CBK265604] to COc1ccc(N2CCN(CC(=O)Nc3ccc(Cl)cc3C(=O)c3ccccc3)CC2)cc1 [CBK265743], the viability at 28.5 h, 10 µM falls from 93.6% to 90.7%.

Compared with CC(C)C(C(=O)Nc1ccc(S(=O)(=O)N2CCOCC2)cc1)N1C(=O)c2ccccc2C1=O (centres unmarked) [CBK265607], CC1CCN(S(=O)(=O)c2ccc(NC(=O)c3cccc(NC(=O)C(C)C)c3)cc2)CC1 [CBK265653] is lower in viability at 28.5 h, 10 µM: 97.6% for the first, 88% for the second.

Compared with COc1ccc(-c2nn(-c3ccccc3)cc2/C=C2\SC(N3CC(C)OC(C)C3)=NC2=O)cc1F (centres unmarked) [CBK265613], COc1cc(/C=C2\C(=O)N(c3ccc(NC(C)=O)cc3)N=C2c2ccccc2)ccc1O [CBK265664] is lower in viability at 28.5 h, 10 µM: 100% for the first, 87.5% for the second.

Going from COC(=O)c1c(NC(=O)CC2Nc3ccccc3NC2=O)sc2c1CCC(C(C)(C)C)C2 (centres unmarked) [CBK265614] to CCOC(=O)c1c(NC(=O)CSc2nnc3ccccn23)sc2c1CCCCC2 [CBK265685], the viability at 28.5 h, 10 µM rises from 98.1% to 101%.

Going from O=C(O)c1ccc(N2N=C(c3ccccc3)/C(=C\c3cccc([N+](=O)[O-])c3O)C2=O)cc1 [CBK265615] to COc1cc(/C=C2\C(=O)N(c3ccccc3Cl)N=C2c2ccccc2)ccc1O [CBK265698], the viability at 28.5 h, 10 µM falls from 102% to 82.8%.

Going from O=C(/C=C/c1ccc(C(=O)Nc2cccnc2)cc1)Nc1cccnc1 [CBK265617] to CN(C)S(=O)(=O)c1ccc(Cl)c(C(=O)Nc2ccc(C(=O)O)cc2)c1 [CBK265728], the viability at 28.5 h, 10 µM rises from 66.7% to 94.7%.

Compared with COc1ccc(-n2c(SCCc3ccccc3)nnc2-c2ccncc2)cc1 [CBK265618], COc1ccc(-n2c(SCC(=O)O)nnc2-c2cccs2)cc1 [CBK265636] is higher in viability at 28.5 h, 10 µM: 85.3% for the first, 118% for the second.

First: CCOC(=O)/C(C(=O)c1ccccc1)=C(/N)NCCO [CBK265621]
Second: CC(CC(=O)O)CC(=O)Nc1cccc(C(=O)O)c1 (centres unmarked) [CBK265651]
The viability at 28.5 h, 10 µM of the first is higher: 110% for the first, 99.1% for the second.

First: CCOc1cc(/C=C2\S/C(=N/c3ccc(S(N)(=O)=O)cc3)NC2=O)c(Br)cc1O [CBK265622]
Second: COc1cc(/C=C2\S/C(=N/c3ccc(S(N)(=O)=O)cc3)NC2=O)c(Br)cc1O [CBK265711]
The viability at 28.5 h, 10 µM of the first is lower: 95% for the first, 96.9% for the second.

Going from CC(=O)c1ccc(NC(=O)CC2SC(=N)NC2=O)cc1 (centres unmarked) [CBK265625] to CN(C)c1ccc(NC(=O)CC2S/C(=N/c3ccccc3)N(c3ccccc3)C2=O)cc1 (centres unmarked) [CBK265644], the viability at 28.5 h, 10 µM rises from 83.9% to 92.7%.

Going from O=S(=O)(c1cccc2nonc12)N1CCCCCC1 [CBK265627] to O=S(=O)(NCc1ccccc1)c1cccc2nonc12 [CBK265692], the viability at 28.5 h, 10 µM falls from 102% to 90.4%.

Going from CC(C)(Oc1ccc(Cl)cc1)C(=O)NCCc1ccc(S(N)(=O)=O)cc1 [CBK265628] to O=C(OCc1ccc(Br)cc1)c1ccccc1S(=O)(=O)c1ccccc1[N+](=O)[O-] [CBK265718], the viability at 28.5 h, 10 µM falls from 107% to 92.2%.

Going from Cc1cc2ccccc2n2c(SCCC(=O)Nc3ccc(C(C)(C)C)cc3)nnc12 [CBK265639] to Cc1cc2ccccc2n2c(SCC(=O)NCc3ccco3)nnc12 [CBK265666], the viability at 28.5 h, 10 µM rises from 106% to 107%.

Compared with O=c1cc(-c2cccc([N+](=O)[O-])c2)c2ccc(OCc3cc4c(cc3Cl)OCO4)cc2o1 [CBK265652], Cc1ccc(N2C(=O)c3ccc(C(=O)OCc4ccc([N+](=O)[O-])cc4)cc3C2=O)cc1Cl [CBK265730] is higher in viability at 28.5 h, 10 µM: 92.1% for the first, 103% for the second.

First: O=C(NCCNC(=O)c1ccccn1)c1ccccn1 [CBK265654]
Second: O=C(COc1ccccc1Cl)NC(=S)Nc1cccc(C(=O)O)c1 [CBK265662]
The viability at 28.5 h, 10 µM of the first is higher: 101% for the first, 91.4% for the second.

First: CCOC(=O)c1ccc(/N=C2/NC(=O)/C(=C\c3ccccc3OCC(=O)O)S2)cc1 [CBK265658]
Second: O=C(O)COc1ccc(Br)cc1/C=C1\N=C(SCc2ccccc2)SC1=O [CBK265725]
The viability at 28.5 h, 10 µM of the first is lower: 101% for the first, 110% for the second.

Going from O=C(O)COc1ccc(N2C(=O)c3ccc(-c4nc5ccccc5c(=O)o4)cc3C2=O)cc1 [CBK265659] to O=C(O)COc1ccc(Br)cc1C(c1c[nH]c2ccccc12)c1c[nH]c2ccccc12 [CBK265720], the viability at 28.5 h, 10 µM falls from 106% to 94.6%.

First: Cc1cccc(N2NC(=O)/C(=C/c3cccn3-c3ccc(S(N)(=O)=O)cc3)C2=O)c1 [CBK265660]
Second: Cc1ccccc1/N=C1/NC(=O)/C(=C/c2cccn2-c2ccc(S(N)(=O)=O)cc2)S1 [CBK265681]
The viability at 28.5 h, 10 µM of the first is lower: 93.9% for the first, 107% for the second.

First: C#CCOc1ccc(/C=C2/SC(=S)N(CCC(=O)O)C2=O)cc1 [CBK265667]
Second: O=C(O)c1cccc(-c2ccc(/C=C3\SC(=S)N(Cc4ccco4)C3=O)o2)c1 [CBK265726]
The viability at 28.5 h, 10 µM of the first is lower: 94.1% for the first, 98.3% for the second.

First: CC1CCCCN1CCNC(=O)c1ccc(Cn2c(=S)[nH]c3ccccc3c2=O)cc1 (centres unmarked) [CBK265674]
Second: CCn1nccc1C(=O)Nc1nc2ccccc2n1CCN1CCCCC1 [CBK265737]
The viability at 28.5 h, 10 µM of the first is higher: 96% for the first, 89.1% for the second.

Compared with COC(=O)c1c(NC(=O)C(C)Oc2cc(C)c(Cl)c(C)c2)sc(C(C)=O)c1C (centres unmarked) [CBK265678], CC(=O)c1cccc(NC(=O)c2cc(S(=O)(=O)N(C)C)ccc2Cl)c1 [CBK265732] is higher in viability at 28.5 h, 10 µM: 94.1% for the first, 111% for the second.

First: Cc1nnc(SCCCCSc2nnc(C)n2N)n1N [CBK265686]
Second: Cc1nnc(SCc2cccc(Oc3ccccc3)c2)n1N [CBK265714]
The viability at 28.5 h, 10 µM of the first is lower: 88.5% for the first, 104% for the second.

Going from Cc1cc2ccccc2n2c(SCC(=O)NCC3CCCO3)nnc12 (centres unmarked) [CBK265688] to O=C(O)CCSc1nnc2[nH]c3ccccc3n12 [CBK265736], the viability at 28.5 h, 10 µM rises from 103% to 108%.

First: COc1ccc(CNc2nccs2)c(O)c1 [CBK265690]
Second: CCOC(=O)c1cnc2ccc(F)cc2c1NCCN(C)C [CBK265751]
The viability at 28.5 h, 10 µM of the first is lower: 86.2% for the first, 91.7% for the second.

First: CC(=O)c1ccc(NC(=O)C2C3C=CC(C3=C(c3ccccc3)c3ccccc3)C2C(=O)O)cc1 (centres unmarked) [CBK265696]
Second: O=C(COc1ccccc1C1CC(=O)Nc2ccc3ccccc3c21)Nc1ccccc1 (centres unmarked) [CBK265704]
The viability at 28.5 h, 10 µM of the first is higher: 98.4% for the first, 97.3% for the second.

First: CCN(CC)CC(O)Cn1c(-c2cccc([N+](=O)[O-])c2)nc(=S)c2c1CCCC2 (centres unmarked) [CBK265700]
Second: CN(C)S(=O)(=O)c1ccc(Cl)c(C(=O)Nc2cccc([N+](=O)[O-])c2)c1 [CBK265721]
The viability at 28.5 h, 10 µM of the first is lower: 97.1% for the first, 103% for the second.

First: O=C(CSc1nc2ccccc2[nH]1)Nc1cccc(NC(=O)C23CC4CC(CC(C4)C2)C3)c1 [CBK265702]
Second: O=C(O)Cn1c2ccc(Cl)cc2c2nc3ccccc3nc21 [CBK265712]
The viability at 28.5 h, 10 µM of the first is lower: 89.8% for the first, 97.8% for the second.

Compared with O=C(C1CCN(S(=O)(=O)c2ccccc2)CC1)N1CCN(Cc2ccc3c(c2)OCO3)CC1 [CBK265713], CN(CC(=O)O)C(=O)c1ccc(S(=O)(=O)N2CCCCC2)cc1 [CBK265715] is higher in viability at 28.5 h, 10 µM: 104% for the first, 112% for the second.

First: COc1cc(C(c2c[nH]c3ccccc23)c2c[nH]c3ccccc23)ccc1OCC(=O)O [CBK265717]
Second: O=C(NC(NC(=O)c1ccccc1F)c1ccc2c(c1)OCO2)c1ccccc1F [CBK265742]
The viability at 28.5 h, 10 µM of the first is lower: 97.8% for the first, 106% for the second.

Going from CCN(CC)S(=O)(=O)c1cc(C(=O)Nc2ccccc2C(=O)O)c(Cl)cc1Cl [CBK265731] to O=C(Nc1ccc(Cl)cc1C(=O)NCCN1CCOCC1)c1ccc(Cl)cc1Cl [CBK265749], the viability at 28.5 h, 10 µM falls from 125% to 105%.

Going from O=C(O)c1ccc(Cl)c(S(=O)(=O)N2CCCC2C(=O)O)c1 (centres unmarked) [CBK265733] to O=C(c1ccccc1Br)N1CCN(c2ccc([N+](=O)[O-])c(NCc3cccnc3)c2)CC1 [CBK265735], the viability at 28.5 h, 10 µM falls from 103% to 100%.

Compared with Cc1ccc(C)c(C(=O)C2=C(O)C(=O)N(CCN(C)C)C2c2ccc(O)cc2)c1 (centres unmarked) [CBK265740], Sc1nncn1NCc1cc(Cl)ccc1OCc1ccccc1 [CBK265752] is lower in viability at 28.5 h, 10 µM: 102% for the first, 88.9% for the second.

Same assay, conditions: human, hela cells, % viability, bulk resorufin, single well

Going from O=C1NC(=S)N(Cc2ccco2)C(=O)/C1=C\c1ccc(-c2ccc(Cl)c(C(=O)O)c2)o1 [CBK265584] to Cc1cc(/C=C2\C(=O)NC(=O)N(Cc3ccccc3Cl)C2=O)c(C)n1-c1ccc(C(=O)O)cc1 [CBK265602], the viability at 28.5 h, 10 µM falls from 90.1% to 84.9%.

For CCN1C(=O)/C(=C/Nc2ccc(S(N)(=O)=O)cc2)C(=O)NC1=S [CBK265687], the viability at 28.5 h, 10 µM was 112%.
